Assays:
[1] = system: Eucalyptus saligna (Sydney Blue Gum); assay: Case 2: thinning of plantation grown Eucalyptus saligna with Di-Bak G, field trial; assay type: in vivo; settings: at four months, on average a capsule every 13-14 cm of stem circumference
Method: Generally, one capsule was inserted per 10 cm stem circumference.
Tree health was assessed on a 0-4 scale, 0 being dead and 4 being healthy. Observations were made for evidence of ‘flashback’ in nearby untreated trees.
A trial was established on Brooklyn Station, Upper Tooloom, near Urbenville on 25 May 2017. GPS co-ordinates of the first treated plot were S28° 32.486′ E152° 24.782′. […] Trees were 6-10 m tall. Desirable trees were marked and the other trees were treated.
The trial consisted of four replicates with 15 trees per replicate. The number of capsules applied to each tree was dependent on tree circumference which was measured at chest height. The tree circumferences range was from 18 to 57 cm. Tree health was assessed at 4 months (25 Aug. 2017) and 7 months (20 Dec. 2017). Samples were collected for observation of dissolution of capsule and herbicide. Rainfall data for the closest recording station (Urbenville) was taken from the Bureau of Meteorology (BOM) internet site. No recent temperature data records were available for this site.

[2] = system: western white gum (Eucalyptus argophloia); assay: Example 2: glyphosate and hexazinone capsules, thinning trial in western white gum plantation; settings: Eucalyptus argophloia
Method: The trial for this example was established at the HQP plantation near Jandowae on 6 Feb. 2018. The trees were planted in rows 4 m apart at 1.5 m spacing. Trees were 6-10 m tall. Trees to be maintained were marked and the other trees were treated.
Four treatments were used, with capsules as follows:
The capsules used were HPMC Size 0 Natural TR.V700 colour cap and body Vcaps (Suzhou Capsugel® Ltd, China). Capsules were hand packed using a Capsugel Profiller apparatus (https://www.capsugel.com/biopharmaceutical-products/profiller). An embodiment of apparatus 10 adapted to include handle 2201 (FIG. 17) was used to drill a hole into the stem, insert the herbicide capsule and seal with a wooden plug.
Herbicide capsules were applied to approximately 10 trees for each of the treatments. The number of capsules applied to each tree was independent of tree circumference which was measured at chest height. The tree circumferences range was from 20 to 34 centimetres. At 4 weeks, a small sample of trees were cut down with a chainsaw and cross-sections of stems containing the sites of insertion of the herbicide capsules removed. These stem pieces were returned to the laboratory and split open longitudinally through the insertion point. Tree health was assessed at 11 weeks (24 Apr. 2018) on a 0-4 scale with 0 being dead and 4 being healthy. Observations were made for evidence of flashback in untreated trees.

[3] = system: Cinnamonum camphora (Camphor laurel); parameters: key: X indicates that the given herbicide is suitable for controlling the given weed; settings: cited from earlier work
[4] = system: Crataegus sinaica (Azarola); parameters: key: X indicates that the given herbicide is suitable for controlling the given weed; settings: cited from earlier work
[5] = system: Harungana madagarcariensis (Harungana); parameters: key: X indicates that the given herbicide is suitable for controlling the given weed; settings: cited from earlier work
[6] = system: Inga edulis (Icecream tree); parameters: key: X indicates that the given herbicide is suitable for controlling the given weed; settings: cited from earlier work
[7] = system: Koelreuteria elegans (Golden rain tree); parameters: key: X indicates that the given herbicide is suitable for controlling the given weed; settings: cited from earlier work
Lantana camara (Lantana) = system: Lantana camara (Lantana); parameters: key: X indicates that the given herbicide is suitable for controlling the given weed; settings: cited from earlier work
[8] = system: Leptospermum spp. (Tea trees); parameters: key: X indicates that the given herbicide is suitable for controlling the given weed; settings: cited from earlier work
[9] = system: Ligustrum lucidum (Broad leaf privet); parameters: key: X indicates that the given herbicide is suitable for controlling the given weed; settings: cited from earlier work
[10] = system: Lycium ferocissium (African boxthom); parameters: key: X indicates that the given herbicide is suitable for controlling the given weed; settings: cited from earlier work
[11] = system: Miconia calvescens (Velvet tree); parameters: key: X indicates that the given herbicide is suitable for controlling the given weed; settings: cited from earlier work
Mimosa pigra (Mimosa) = system: Mimosa pigra (Mimosa); parameters: key: X indicates that the given herbicide is suitable for controlling the given weed; settings: cited from earlier work
[12] = system: Olea europea sbsp africana (African olive); parameters: key: X indicates that the given herbicide is suitable for controlling the given weed; settings: cited from earlier work
[13] = system: Psidium cattleianum (Cherry guava); parameters: key: X indicates that the given herbicide is suitable for controlling the given weed; settings: cited from earlier work
[14] = system: Rubus anglocandicans (Blackberry); parameters: key: X indicates that the given herbicide is suitable for controlling the given weed; settings: cited from earlier work
Salix species (Willows) = system: Salix species (Willows); parameters: key: X indicates that the given herbicide is suitable for controlling the given weed; settings: cited from earlier work
[15] = system: Schefflera actinophyla (Umbrella tree); parameters: key: X indicates that the given herbicide is suitable for controlling the given weed; settings: cited from earlier work
[16] = system: Schinus terebinthifolius (Broad-leafed pepper tree); parameters: key: X indicates that the given herbicide is suitable for controlling the given weed; settings: cited from earlier work
[17] = system: Solanum mauritianum (Wild tobacco tree); parameters: key: X indicates that the given herbicide is suitable for controlling the given weed; settings: cited from earlier work
[18] = system: Toxicodendron succedaneum (Rhus); parameters: key: X indicates that the given herbicide is suitable for controlling the given weed; settings: cited from earlier work
[19] = system: Triadica sebifera (Chinese tallow tree); parameters: key: X indicates that the given herbicide is suitable for controlling the given weed; settings: cited from earlier work

O=C(O)CNCP(=O)(O)O [Glyphosate]
mortality [1]: over 90% | flashback in the trees marked for retention ([2]; 11 week assessment): no flashback was observed | trees died / killed (health rating 0-4 scale, 0 dead) ([2]; 11 weeks post treatment, 1 or 2 capsules per tree): majority of trees | suitability of herbicide for control of weed [3]: X | suitability of herbicide for control of weed [4]: X | suitability of herbicide for control of weed [5]: X | suitability of herbicide for control of weed [6]: X | suitability of herbicide for control of weed [7]: X | suitability of herbicide for control of weed (Lantana camara (Lantana)): X | suitability of herbicide for control of weed [8]: X | suitability of herbicide for control of weed [9]: X | suitability of herbicide for control of weed [10]: X | suitability of herbicide for control of weed [11]: X | suitability of herbicide for control of weed (Mimosa pigra (Mimosa)): X | suitability of herbicide for control of weed [12]: X | suitability of herbicide for control of weed [13]: X | suitability of herbicide for control of weed [14]: X | suitability of herbicide for control of weed (Salix species (Willows)): X | suitability of herbicide for control of weed [15]: X | suitability of herbicide for control of weed [16]: X | suitability of herbicide for control of weed [17]: X | suitability of herbicide for control of weed [18]: X | suitability of herbicide for control of weed [19]: X

Reference: patent US11259516B2, “Method and apparatus for capsular delivery to plants” (priority 2017, dated 2022)
